Assay results reported in ChEMBL document CHEMBL1151573, “Cyclic homopentapeptides 3. Synthetic modifications to the capreomycins and tuberactinomycins: Compounds with activity against methicillin-resistant Staphylococcus aureus and vancomycin-resistant enterococci” (1997).
In brackets after ≈: the same amount, converted by molar mass. Numbered stars: 1 amine (or outer) side, 2 acyl side, 3 side chain; on linkers, the order of the positions; unused ones are H or OH. Bridge positions count the residues as written; N and C are the ends. Square brackets hold non-standard residues; d marks the D form. Side chains are listed from the residue outwards. Peptide text beside a SMILES is read from it. * marks the point of attachment. ξ: configuration not given here. NH(4-cHex-phenyl) = c1cc(C2CCCCC2)ccc1N*; X1 = NC1=NCCC([C@H](N[*:1])C(=O)[*:2])N1; X2 = N=C1NCCC([C@H](N[*:1])C(=O)[*:2])N1; ΔAla(Z-3-ureido) = NC(=O)N/C=C(\N)C(=O)O; ΔDap(Z) = O=C(/C(=C/N[*:3])N[*:1])[*:2]; β3hR = N=C(N)NCCC[C@H](N)CC(=O)O; β3hOrn = NCCC[C@H](N)CC(=O)*; ξβ3hOrn = NCCCC(N)CC(=O)*; Dap = NC[C@H](N)C(=O)O; X3 = NCC[C@H](O)C(=O)*; CO = O=C([*:1])[*:2]; ξDap = NCC(N)C(=O)O

How the values were obtained:
[1] = Antibacterial activity against Enterococcus faecium (vancomycin-resistant, erythromycin-resistant, ciprofloxacin-resistant); assay type: functional
Staphylococcus aureus = test: Antibacterial activity against Staphylococcus aureus (erythromycin- resistant, methicillin-resistant, ciprofloxacin- resistant) was determined; assay type: functional
[2] = Antibacterial activity against Enterococcus faecalis (vancomycin-resistant, methicillin-resistant, ciprofloxacin-resistant); assay type: functional, erythromycin faecalis

SMILES | MIC [1] [µg/mL] | MIC (Staphylococcus aureus) [µg/mL] | MIC [2] [µg/mL]
O=C(N/N=C/c1cccc2c(OCc3ccc(OC(F)(F)F)cc3)cccc12)c1ccc(O)c(Cl)c1 | 3.12 (≈ 6.06 µM) | 25 (≈ 48.6 µM) | 12.5 (≈ 24.3 µM)
NCCC[C@H](N)CC(=O)NC[C@@H]1NC(=O)[C@H](CO)NC(=O)C(NC(=O)[C@@H](O)CCN)CNC(=O)[C@H](C2CCN=C(N)N2)NC(=O)/C(=C/NC(=O)Nc2ccc(C3CCCCC3)cc2)NC1=O (stereo partly drawn) (X3-[ξDap]S[Dap](β3hOrn)[ΔDap(Z)]([CO-NH(4-cHex-phenyl)])[X1]; lactam 1-C) | 6.25 (≈ 6.73 µM) | 3.12 (≈ 3.36 µM) | 6.25 (≈ 6.73 µM)
NCCC[C@H](N)CC(=O)NC[C@@H]1NC(=O)[C@H](CO)NC(=O)C(N)CNC(=O)[C@H](C2CCN=C(N)N2)NC(=O)/C(=C/NC(=O)Nc2ccc(C3CCCCC3)cc2)NC1=O (stereo partly drawn) (H-[ξDap]S[Dap](β3hOrn)[ΔDap(Z)]([CO-NH(4-cHex-phenyl)])[X1]; lactam 1-C) | 3.12 (≈ 3.77 µM) | 1.56 (≈ 1.89 µM) | 3.12 (≈ 3.77 µM)
CN[C@H](CC(C)C)C(=O)N[C@H]1C(=O)N[C@@H](CC(N)=O)C(=O)N[C@H]2C(=O)N[C@H]3C(=O)N[C@H](C(=O)N[C@H](C(=O)O)c4cc(O)cc(O)c4-c4cc3ccc4O)[C@H](O)c3ccc(c(Cl)c3)Oc3cc2cc(c3O[C@@H]2O[C@H](CO)[C@@H](O)[C@H](O)[C@H]2O[C@H]2C[C@](C)(N)[C@H](O)[C@H](C)O2)Oc2ccc(cc2Cl)[C@H]1O [VANCOMYCIN] | > 100 | 0.78 (≈ 0.538 µM) | > 100
NCCCNCCC(=O)NC1CNC(=O)[C@@H](C2CCN=C(N)N2)NC(=O)/C(=C/Nc2ccc(Cl)c(Cl)c2)NC(=O)[C@@H](CO)NC(=O)[C@@H](CO)NC1=O (stereo not given in full) | 50 (≈ 64.8 µM) | 50 (≈ 64.8 µM) | 50 (≈ 64.8 µM)
NCC[C@@H](O)[C@H](N)CC(=O)NC1CNC(=O)[C@@H](C2CCN=C(N)N2)NC(=O)/C(=C/Nc2ccc(Cl)c(Cl)c2)NC(=O)[C@@H](CO)NC(=O)[C@@H](CO)NC1=O (stereo not given in full) | 25 (≈ 31.7 µM) | 12.5 (≈ 15.9 µM) | 50 (≈ 63.5 µM)
NC1=NC([C@H]2NC(=O)/C(=C/NC(=O)Nc3ccc(C4CCCCC4)cc3)NC(=O)[C@@H](CO)NC(=O)[C@@H](CO)NC(=O)C(NC(=O)Nc3ccc(Br)cc3)CNC2=O)CCN1 (stereo not given in full) | 6.25 (≈ 6.96 µM) | 12.5 (≈ 13.9 µM) | 12.5 (≈ 13.9 µM)
NCC1NC(=O)[C@H](CO)NC(=O)[C@H](CO)NC(=O)C(NC(=O)Nc2ccc(C3CCCCC3)cc2)CNC(=O)[C@H](C2CCN=C(N)N2)NC1=O (stereo not given in full) ({NH(4-cHex-phenyl)-CO}-[ξDap]SS[ξDap][X1]; lactam 1-C) | > 100 | > 100 | > 100
C[C@@H]1NC(=O)[C@@H](N)CNC(=O)[C@H](C2CCNC(=N)N2)NC(=O)/C(=C/NC(N)=O)NC(=O)[C@H](CNC(=O)CC(N)CCCN)NC1=O.N=C1NCCC([C@@H]2NC(=O)/C(=C/NC(N)=O)NC(=O)[C@H](CNC(=O)CC(N)CCCN)NC(=O)[C@H](CO)NC(=O)[C@@H](N)CNC2=O)N1 (stereo partly drawn) [CAPREOMYCIN] (H-[Dap]S[Dap](ξβ3hOrn)[ΔAla(Z-3-ureido)][X2]; lactam 1-C) | > 1000 | 100 | > 1000
NC(N)=NCCC[C@H](N)CC(=O)NC[C@@H]1NC(=O)[C@H](CO)NC(=O)C(N)CNC(=O)[C@H](C2CCN=C(N)N2)NC(=O)/C(=C/NC(=O)Nc2ccc(C3CCCCC3)cc2)NC1=O (stereo partly drawn) (H-[ξDap]S[Dap](β3hR)[ΔDap(Z)]([CO-NH(4-cHex-phenyl)])[X1]; lactam 1-C) | 3.12 (≈ 3.59 µM) | 1.56 (≈ 1.8 µM) | 3.12 (≈ 3.59 µM)
